Data set [1] is described as follows: Particle size of EPO mRNA-encapsulating lipid particles. The data set is classed as physicochemical. To be noted: aminolipid 50 / DOPE 10 / cholesterol 38.5 / DMG-PEG2000 1.5 mol %, lipid/nucleic acid 64 wt/wt. An outline of the steps:
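Lipid particles made from ethanol lipid phase (20 mmol/L total lipid, with DSPC, DOPE or DOPC, cholesterol, DMG-PEG2000) and EPO mRNA in pH 4 citrate buffer (lipid:mRNA about 16:1 to 64:1 w/w), mixed 3:1 aqueous:oil, then dialyzed against 10% sucrose. Size measured after 10-fold PBS dilution by light-scattering analyzer.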

In data set [2] the test system is PTEN ASO. Kind of data set: Encapsulation rate of PTEN ASO in lipid particles. The data set is classed as physicochemical. To be noted: aminolipid 50 / DSPC 20 / cholesterol 28.5 / monostearyl PEG 1.5 mol %, lipid/nucleic acid 11.8 wt/wt. The procedure: The first lipid, phospholipid, cholesterol, and polyethylene glycol lipid (PEG lipid) shown in Table 3 were dissolved in ethanol at the molar ratio shown in Table 3 such that the total lipid concentration was 20 mmol/L to obtain the oil phase.
As the neutral lipid, 1,2-Distearoyl-sn-glycero-3-phosphocholine (DSPC, product name: COATSOME MC-8080, NOF corporation) was used. As the cholesterol, cholesterol (product name: Cholesterol HP; Nippon Seika Co., Ltd.) was used. As the PEG lipid, monostearyl PEG (product name: Polyethylene Glycol Monostearate (4E.O.), FUJIFILM Wako Pure Chemical Corporation) was used.
5 mg of PTEN ASO was dissolved in 1 mL of sterile water and diluted with a 10 mmol/L acetate buffer having a pH of 4 such that the nucleic acid concentration was 54.6 μmol/L, to obtain a water phase. Then the water phase and the oil phase were mixed together with a micromixer (see JP5288254B) using a syringe pump such that the volume ratio of water phase:oil phase was 3:1, and the mixed solution was two-fold diluted with a phosphate buffered physiological saline (PBS), thereby obtaining a dispersion of nucleic acid lipid particles.
30 μL of 3 mol/L aqueous sodium acetate solution and 9 μL of glycogen were added to 60 μL of the lipid particles retaining nucleic acids, and then 1.5 mL of ethanol was added thereto, so that only the nucleic acids were precipitated while the lipid was dissolved. Then, the supernatant was removed by centrifugation. The precipitates were air-dried for 15 minutes or longer, then water was added thereto to redissolve the precipitates, and the concentration thereof was measured using Nanodrop ND1000 (Thermo Fisher Scientific), thereby quantifying the total nucleic acid concentration.
The mRNA concentration was quantified using a Quant-iT RiboGreen RNA Assay Kit (Thermo Fisher Scientific) according to the protocol. First, a 20×TE buffer included in the above-described kit was diluted with water, thereby obtaining a 1×TE buffer. TE represents Tris/EDTA (ethylenediaminetetraacetic acid). In order to quantify only the nucleic acid in the outer water phase, the dispersion liquid of lipid particles retaining nucleic acids was 10,000-fold diluted with the 1×TE buffer.
100 μL of the 10,000-fold diluted dispersion liquid of lipid particles was put into a 96-well plate, then 100 μL of a RiboGreen reagent (reagent included in the Quanti-iT Ribogreen RNA Assay Kit described above) 2,000-fold diluted with the 1×TE buffer was added to a sample, and fluorescence (excitation wavelength: 485 nm, fluorescence wavelength: 535 nm) was measured using a plate reader Infinite F200 (TECAN), thereby quantifying the nucleic acid concentration in the outer water phase.
By using the quantification results of the total nucleic acid concentration and the nucleic acid concentration in the outer water phase that were obtained through the above steps, the nucleic acid encapsulation rate of the nucleic acid lipid particles was calculated according to the following Equation.
Nucleic acid encapsulation rate (%)=(total nucleic acid concentration—nucleic acid concentration in outer water phase)/total nucleic acid concentration×100

The structures appear in SMILES notation.

Consider `CCCCCCC(CCCC)COC(=O)CCCC(CCCCCC)OC(=O)OCCN(CCOC(=O)OC(CCCCCC)CCCC(=O)OCC(CCCC)CCCCCC)CCN(CC)CC` (stereo not shown) [Example 8, Bis(2-butyloctyl) 11-(2-(diethylamino)ethyl)-5,17-dihexyl-7,15-dioxo-6,8,14,16-tetraoxa-11-azahenicosanedioate], for which the Particle size in data set [1] amounted to 81.3 nm. Further, the “Nucleic acid encapsulation rate” value in data set [2] is listed as 93%.
The like results for `CCCCCCC(CCCC(=O)OCC(CCCCC)CCCCC)OC(=O)OCCN(CCCN(CC)CC)CCOC(=O)OC(CCCCCC)CCCC(=O)OCC(CCCCC)CCCCC` (stereo not shown) [Example 13, Bis(2-pentylheptyl) 11-(3-(diethylamino)propyl)-5,17-dihexyl-7,15-dioxo-6,8,14,16-tetraoxa-11-azahenicosanedio ate] were, in that order, 79.5 nm and 97%.
The corresponding values for `CCCCCC(CCCCC)COC(=O)CCCC(CCC)OC(=O)OCCN(CCOC(=O)OC(CCC)CCCC(=O)OCC(CCCCC)CCCCC)CCN(CC)CC` (stereo not shown) [Example 21, Bis(2-pentylheptyl) 11-(2-(diethylamino)ethyl)-7,15-dioxo-5,17-dipropyl-6,8,14,16-tetraoxa-11-azahenicosanedioate] are 109.4 nm and 96%.
The corresponding values for `CCCCCCCOC(=O)CCCC(CCCC(=O)OCCCCCCC)OC(=O)OCCN(CCOC(=O)OC(CCCC(=O)OCCCCCCC)CCCC(=O)OCCCCCCC)CCN(CC)CC` [Example 29, diheptyl 11-(2-(diethylamino)ethyl)-5,17-bis(4-(heptyloxy)-4-oxobutyl)-7,15-dioxo-6,8,14,16-tetraoxa-11-azahenicosanedioate] are 108.7 nm and 92%.
The compound `CCCCCCCOC(=O)CCCC(CCCC(=O)OCCCCCCC)OC(=O)OCCN(CCOC(=O)OC(CCCC(=O)OCCCCCC)CCCC(=O)OCCCCCC)CCN(CC)CC` [Example 37, 1-Heptyl 21-hexyl 11-(2-(diethylamino)ethyl)-5-(4-(heptyloxy)-4-oxobutyl)-17-(4-(hexyloxy)-4-oxobutyl)-7,15-d ioxo-6,8,14,16-tetraoxa-11-azahenicosanedioate] registered a Particle size in data set [1] of 136.1 nm. The “Nucleic acid encapsulation rate” value in data set [2] is given as 92%.
